Measured values reported in patent US12404279B2, “Deubiquitinase inhibitors and methods of use thereof” (Molecure S.A., priority 2021, dated 2025).
“Also recorded” adds a separate entry of the source.

What was measured:
mouse CD8+ T cells = test: Cytotoxic effect on mouse CD8+ T cells (splenocytes, flow cytometry); format: cell-based; conditions: 24 hours of incubation
Protocol: In these experiments, the mouse splenocytes were seeded into in 24-well plate and after 24 hours of incubation with USP7 inhibitors the T cells viability was analyzed with flow cytometry. […] Mann-Whitney test.

[1] = system: CT26 model of colon carcinoma; test: Antitumor efficacy in the subcutaneous CT26 syngeneic model of colon carcinoma
Protocol: The 7-8-week old BALB/c females (BALB/cAnNCrl, Charles River Laboratories) were injected subcutaneously in the right flank with 5×10^5 CT26 cells. USP7 inhibitors were dosed by oral gavage twice per day at indicated doses starting from 2-5 days after the tumor implantation. […] Tumor volume was estimated by a formula: width×length×depth×π/6.

CD4+ T cells [2] = test: In vivo and ex vivo immunomodulatory effect in BALB/c mice (splenic CD4+ T cells); format: cell-based
Protocol: BALB/c mice (10-week-old females, n=3) were administered with Example 77 at 200 mg/kg (BID) by oral gavage for 3 consecutive days. Untreated mice were used as the control group (n=3). Animals were sacrificed 16 hours following the last dosing. The spleens were collected and total CD4^+ lymphocytes were isolated by bead-based negative separation according to the manufacturers manual (EasySep™ Mouse CD4+ T cell Isolation Kit, StemCell; Cat. #19852). The purity of splenic CD4^+ T cells exceeded 95%, as confirmed by flow cytometric analysis following staining with anti-mouse CD3 and CD4 antibodies. Isolated CD4^+ T cells were seeded in triplicates (50 000 cells/well in RPMI full medium) on 96-well U-bottom plate covered with 1 μg/mL anti-CD3 and 1 μg/mL anti-CD28 antibodies (for stimulation and activation of cells). Following one hour preincubation in 37° C. degree, CD4^+ T cells were treated with 2 μM of Example 77, the final concentration of DMSO in wells was 0.03%. After 72 h lymphocytes activation was evaluated by testing viability, cytotoxicity and cytokine release: mTNF-α and mIFN-γ.
• 1. ATP level in cell lysates (CellTiterGlo Viability Assay, Promega) • 2. Lactate dehydrogenase (LDH) level in cell culture medium (LDH-Glo Cytotoxicity Assay, Promega) • 3. Cell counting (Fluorescence staining, Luna automated cell counter, Logos Biosystems) • 4. mTNF-α in supernatants by ELISA • 5. mIFN-γ in supernatants by ELISA

full-length USP7 = full-length USP7 (Homo sapiens (Human), UniProt Q93009); test: Enzymatic assay to determine IC50 of USP7 inhibitors (Ubiquitin-Rhodamine 110 cleavage); format: biochemical; conditions: 0.5 nM USP7, 0.5 μM Ubiquitin-Rhodamine 110, 45 min at 37° C.
Procedure, shortened: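 Enzyme: 0.5 nM full-length USP7 in HEPES pH 7.5 buffer with NaCl, DTT, BSA and Tween20, given 15 min at room temperature with DTT before compounds were added.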

CT26 cells = test: Killing assay: splenocytes of tumor-bearing mice co-cultured with CT26 cells; format: cell-based, mouse; conditions: co-culture with CT26 cells 1:10 and 1:50, 36 h
Protocol: To investigate the killing capability of T cells the splenocytes were isolated from tumor-bearing mice treated and untreated with different concentrations of Example 77. CT26 cells were seeded and stained with Green Cell Tracker. Stained CT26 cells were co-cultured with splenocytes from experimental animals in two ratios 1:10 and 1:50. After 36 h cells were harvested and analyzed on the flow cytometer.

CD4+ T cells [3] = test: Immunomodulatory effect on isolated, anti-CD3/anti-CD28 activated CD4+ T cells from C57BL/6 mice; format: cell-based
Excerpt: (§1) Splenocytes from three C57BL/6 mice donors were isolated separately. Next, specific CD4^+ cells were extracted from all splenocytes with EasySep™ Mouse CD4^+ T cell Isolation Kit by negative selection (StemCell; Cat. #19852). The purity of splenic CD4^+ T cells exceeded 95%, as confirmed by flow cytometric analysis following staining with anti-mouse CD3 and CD4 antibodies. Pure CD4^+ cells were subsequently seeded in RPMI full medium (50 000 cells/well) on 96-well U-bottom plate covered with 1 μg/mL antiCD3 and 1 μg/mL antiCD28 (for stimulation and activation). Then. […] The final concentration of DMSO in wells was 0.03%. After 72 h, lymphocyte activation was evaluated by counting, testing viability (LDH Assay, CellTiter Glo Assay) and cytokine. Statistical significance of observed effects was determined based on mean values calculated from technical replicates for each mouse (n=9; experiment was performed three times). • 1. ATP level in cell lysates (CellTiterGlo Viability Assay. Promega;) • 2. LDH level in cell culture medium • 3. Cell counting (Orange-Acridine staining, Luna automated cell counter, Logos Biosystems) • 4. mTNF-α in supernatants (ELISA) • 5. mIFN-γ in supernatants (ELISA) • 6. Magpix Luminex (T-Cells Panel: GM-CSF, IFN-γ, IL-10 TNF-α)

[4] = as above; format: cell-based; conditions: C57BL/6; activated mouse CD4+ T cells, 72 h; read-out: cytotoxicity IC50 (cell viability, CellTiter Glo Assay)
Excerpt: as §1

[5] = 2 μM, 72 h, LDH-Glo cytotoxicity assay
[6] = 0.5-2.5 μM, 72 h, ELISA / Magpix Luminex
[7] = 0.5-2.5 μM, 72 h, Magpix Luminex

Sequence of full-length USP7 (Q93009 whole entry): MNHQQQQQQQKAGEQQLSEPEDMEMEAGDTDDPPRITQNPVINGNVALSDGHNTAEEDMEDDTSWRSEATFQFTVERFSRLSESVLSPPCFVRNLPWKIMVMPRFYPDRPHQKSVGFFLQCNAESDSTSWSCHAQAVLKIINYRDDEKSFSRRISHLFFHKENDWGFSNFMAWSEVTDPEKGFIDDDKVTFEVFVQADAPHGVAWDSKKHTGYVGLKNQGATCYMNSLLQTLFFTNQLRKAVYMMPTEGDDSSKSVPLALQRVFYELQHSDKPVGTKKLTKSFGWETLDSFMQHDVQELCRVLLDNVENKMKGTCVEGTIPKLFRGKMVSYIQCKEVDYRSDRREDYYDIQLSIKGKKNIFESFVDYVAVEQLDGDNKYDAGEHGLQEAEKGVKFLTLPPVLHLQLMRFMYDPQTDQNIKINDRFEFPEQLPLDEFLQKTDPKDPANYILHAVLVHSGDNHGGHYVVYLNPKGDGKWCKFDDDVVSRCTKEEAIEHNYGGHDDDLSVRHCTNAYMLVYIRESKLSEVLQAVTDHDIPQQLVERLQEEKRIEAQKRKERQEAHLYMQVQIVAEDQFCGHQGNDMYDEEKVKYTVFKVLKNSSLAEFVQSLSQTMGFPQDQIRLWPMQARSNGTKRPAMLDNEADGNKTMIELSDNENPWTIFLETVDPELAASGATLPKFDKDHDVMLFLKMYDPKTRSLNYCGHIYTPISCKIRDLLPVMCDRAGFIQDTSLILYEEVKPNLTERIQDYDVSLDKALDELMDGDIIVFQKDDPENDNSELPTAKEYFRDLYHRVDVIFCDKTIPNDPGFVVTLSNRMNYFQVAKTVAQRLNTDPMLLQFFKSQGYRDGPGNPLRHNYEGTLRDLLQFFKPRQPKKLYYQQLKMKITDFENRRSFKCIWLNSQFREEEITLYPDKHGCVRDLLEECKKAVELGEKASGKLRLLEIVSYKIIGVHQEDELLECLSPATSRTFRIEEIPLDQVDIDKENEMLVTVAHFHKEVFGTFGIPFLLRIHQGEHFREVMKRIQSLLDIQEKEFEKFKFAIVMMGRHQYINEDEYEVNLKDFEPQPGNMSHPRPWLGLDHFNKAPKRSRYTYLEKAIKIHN

In the case of `CN[C@H]1CCN(C(=O)c2c(C)cc(C(F)(F)F)nc2-c2ccnc3cc(CN4C(=O)C5C(C4=O)C5(C)C)sc23)C1.Cl.Cl` (stereo partly drawn) [Example 77, 6,6-dimethyl-3-((7-(4-methyl-3-((S)-3-(methylamino)pyrrolidine-1-carbonyl)-6-(trifluoromethyl)pyridin-2-yl)thieno[3,2-b]pyridin-2-yl)methyl)-3-azabicyclo[3.1.0]hexane-2,4-dione dihydrochloride], the “cytotoxicity to CD8 T cells” value (mouse CD8+ T cells) is reported as “limited”, the TGI ([1]; 100 mg/kg PO BID, anti-PD-1 combination experiment) is reported as 69% and the “increase in survival time vs. anti-PD-1 monotherapy group” value ([1]; 100 mg/kg PO BID, log-rank test) is reported as 26%. The “percent of CD8+ T cells in tumor” value ([1]; 100 mg/kg, cytometric analysis) was “increase”, the “interferon-γ production in CD8+ T cells” value ([1]; 100 mg/kg, data not shown) was “enhanced amounts” and the “granzyme B production in CD8+ T cells” value ([1]; 100 mg/kg, flow cytometry) was “enhanced amounts”. The “antitumor effect after injection of CD8-depleting anti-CD8 antibodies” value ([1]; anti-CD8 antibody 100 μg intraperitoneally on days 1, 7 and 14, dihydrochloride) was “completely abrogated; also recorded: requires CD8+ T cells”, the “effect on the therapeutic effect of anti-PD-1 antibody” value ([1]; combination with anti-PD-1 antibody, dihydrochloride) was “potentiated; also recorded: increases the efficiency” and the “tumor growth inhibition (TGI)” value ([1]; dose-dependent, oral gavage BID, day 20 post-inoculation, p=0.048) was “up to 67%”. For the same molecule, the survival time ([1]; survival analysis, anti-PD-1 combination experiment) was 29 days, the “pro-inflammatory cytokines release after additional ex vivo treatment of isolated T-cells” value (CD4+ T cells [2]; 2 μM ex vivo, 72 h) was “additionally increases” and the “total ATP level (CellTiter Glo Assay)” value (CD4+ T cells [2]; 2 μM, 72 h) was “didn't affect”. For the same molecule, the “CD4+ T cells activation and pro-inflammatory cytokines release: TNF-α and IFN-γ” value (CD4+ T cells [2]; 2 μM, 72 h, ELISA) was “does not affect”, the “LDH concentration in the culture medium vs. positive control” value (CD4+ T cells [2]; [5]) was no more than 5% and the “cytotoxicity for CD4+ T-cells” value (CD4+ T cells [2]; [5]) was “not cytotoxic”. For the same molecule, the T cells viability (CD4+ T cells [2]; CD4+ T cells, 2 μM, 72 h) was “does not affect”, the “ex vivo pro-inflammatory cytokine release of activated CD4+ T cells from treated mice vs. control mice” value (CD4+ T cells [2]; mice dosed 200 mg/kg BID by oral gavage for 3 days) was “much more” and the IC50 (full-length USP7) was less than 0.5 µM. For the same molecule, the “killing capability of splenocytes from treated CT26-bearing mice vs. control mice” value (CT26 cells) was “enhanced killing capability”, the “IFNg level in supernatants” value (CD4+ T cells [3]; [6]) was “Statistically significant increase” and the “TNFa level in supernatants” value (CD4+ T cells [3]; [6]) was “not affected”. For the same molecule, the “GM-CSF level in supernatants” value (CD4+ T cells [3]; [7]) was “Statistically significant increase”, the “IL-10 level in supernatants” value (CD4+ T cells [3]; [7]) was “not affected” and the “times less cytotoxic than the reference RAPT compound” value (CD4+ T cells [3]; CellTiter Glo Assay, head to head) was 10. For the same molecule, the “viability by cell counting (Luna cell counter, trypan blue)” value (CD4+ T cells [3]; after 72 h of incubation) was “comparable to that obtained with CellTiter Glo”, the “CD4+ T cells activation and pro-inflammatory cytokine release” value (CD4+ T cells [3]; low concentration (0.5-2.5 μM)) was “does not disturb” and the IC50 at 72 h [4] was roughly 9 µM.
